Patent publication US20100075907A1, “NEUROMEDIN U RECEPTOR AGONISTS AND USES THEREOF” (priority 2006, published 2010)
Non-standard residues stand in square brackets, D forms with d. Residues, ends and D or L forms follow the SMILES beside them. No end group written: not given here. hArg = N=C(N)NCCCC[C@H](N)C(=O)O

Test system: NMUR1 and NMUR2
Assay: NMU receptor subtype selectivity (EC50 ratios human NMUR2/human NMUR1)
Format: cell-based
Details: NMUR1 vs NMUR2
Experimental: The present invention provides neuromedin U receptor agonist. The neuromedin U receptor agonist described herein act at NMU receptors, bind the NMU receptors, and stimulate NMU receptor activity. In one aspect, the neuromedin U receptor agonists are specific for one receptor subtype, wherein such specificity is defined as having an IC50 values that is less than about 200 nM in the corresponding NMUR1 or NMUR2 receptor binding assay. Selectivity is based upon functional activity or EC50 ratios at human NMUR2/human NMUR1 for NMUR1-selective peptides and at human NMUR1/human NMUR2 for NMUR2-selective peptides. Further, the selective neuromedin U receptor agonists described herein range from about 21 to 909-fold selective for NMUR1 and from about 2 to 200-fold selective for NMUR2. In another aspect, the neuromedin U receptor agonists are capable of binding and stimulating both the NMUR1 and NMUR2 receptors and have been derivatized to enable the neuromedin U receptor agonists to cross the blood-brain bather and interact with NMU receptors in the brain. The neuromedin U receptor agonists can be used therapeutically and as research tools.

Compound	receptor subtype specificity
CC(C)C[C@H](NC(=O)[C@H](Cc1c[nH]c2ccccc12)NC(=O)[C@H](Cc1ccccc1)NC(=O)CNC(=O)[C@H](CCCNC(=N)N)NC(=O)[C@H](CO)NC(=O)[C@H](CCC(N)=O)NC(=O)[C@H](CO)NC(=O)[C@H](C)NC(=O)[C@H](Cc1ccccc1)NC(=O)[C@@H]1CCCN1C(=O)[C@H](CO)NC(=O)[C@H](CCC(N)=O)NC(=O)[C@H](Cc1ccccc1)NC(=O)[C@H](CCC(=O)O)NC(=O)[C@H](CCC(=O)O)NC(=O)[C@H](CC(=O)O)NC(=O)[C@@H](NC(=O)[C@H](CCCNC(=N)N)NC(=O)[C@@H](N)Cc1ccccc1)C(C)C)C(=O)N[C@@H](Cc1ccccc1)C(=O)N[C@@H](CCCNC(=N)N)C(=O)N[C@@H](C)C(=O)N[C@@H](CCCCNC(=N)N)C(=O)N[C@@H](CC(N)=O)C(N)=O [Agonist P] (H-FRVDEEFQSPFASQSRGFWLFRA[hArg]N-NH2; N-terminus assumed)	bispecific
FALFRPRN-NH2 [Agonist N]	bispecific
